Assay results as given in PubChem BioAssay AID248 (DTP/NCI, 2004).
Values joined by “and” are separate entries in the source; they are usually repeats but may differ in a detail not shown here. Equal entries are not always repeated. Inconclusive results and toxic doses are left out.

Test system: L1210 leukemia ip in BDF1 mice, survival T/C
Experiment: NCI In Vivo Anticancer Drug Screen. Data for tumor model L1210 Leukemia (intraperitoneal) in B6D2F1 (BDF1) mice
Details: endpoint: mean survival time, higher = longer survival
Method in brief: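 Tumor cells were implanted, animals were treated, and survival was followed. The result divides the treated measurement by the vehicle-control measurement.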

[1] = dose: 100.0 mg/kg/injection, schedule: Q04DX002 (ip), vehicle: Klucel (hydroxypropylcellulose) (HPC)
[2] = dose: 200.0 mg/kg/injection, schedule: Q04DX002 (ip), vehicle: Klucel (hydroxypropylcellulose) (HPC)
[3] = dose: 400.0 mg/kg/injection, schedule: Q04DX002 (ip), vehicle: Klucel (hydroxypropylcellulose) (HPC)
[4] = dose: 100.0 mg/kg/injection, schedule: Q01DX009 (ip), vehicle: Klucel (hydroxypropylcellulose) (HPC)
[5] = dose: 100.0 mg/kg/injection, schedule: Q04DX003 (ip), vehicle: Klucel (hydroxypropylcellulose) (HPC)
[6] = dose: 200.0 mg/kg/injection, schedule: Q01DX009 (ip), vehicle: Klucel (hydroxypropylcellulose) (HPC)
[7] = dose: 200.0 mg/kg/injection, schedule: Q04DX003 (ip), vehicle: Klucel (hydroxypropylcellulose) (HPC)
[8] = dose: 400.0 mg/kg/injection, schedule: Q01DX009 (ip), vehicle: Klucel (hydroxypropylcellulose) (HPC)
[9] = dose: 400.0 mg/kg/injection, schedule: Q04DX003 (ip), vehicle: Klucel (hydroxypropylcellulose) (HPC)

## CCCCCCP(=S)(CCCC)CCCCCC
[1]
  T/C: 102 % of control
[2]
  T/C: 102 % of control
[3]
  T/C: 102 % of control

## O=C1N(c2nncs2)CCN1[N+](=O)[O-]
[4]
  T/C: 95 % of control
[5]
  T/C: 95 % of control
[6]
  T/C: 98 % of control
[7]
  T/C: 98 % of control
[8]
  T/C: 103 % of control
[9]
  T/C: 102 % of control

## CNNC(=O)Cc1ccc(OC)cc1
dose: 50.0 mg/kg/injection, schedule: Q01DX009 (ip), vehicle: saline
  T/C: 100 % of control
dose: 100.0 mg/kg/injection, schedule: Q01DX001 (ip), vehicle: saline
  T/C: 100 % of control
dose: 200.0 mg/kg/injection, schedule: Q01DX001 (ip), vehicle: saline
  T/C: 113 % of control

## COc1ccc(N=CN(C)C)nn1
dose: 100.0 mg/kg/injection, schedule: Q04DX002 (ip), vehicle: saline with Tween-80
  T/C: 91 % of control
dose: 200.0 mg/kg/injection, schedule: Q04DX002 (ip), vehicle: saline with Tween-80
  T/C: 97 % of control
dose: 400.0 mg/kg/injection, schedule: Q04DX002 (ip), vehicle: saline with Tween-80
  T/C: 97 % of control

## CCc1ccc(NS(=O)(=O)c2ccc3ccccc3c2)cc1
[4]
  T/C: 107 % of control
[6]
  T/C: 107 % of control
[8]
  T/C: 98 % of control

## COC(=O)c1ccc(OC(=O)Nc2cccc(C(C)=O)c2)cc1
[4]
  T/C: 96 % of control
[6]
  T/C: 101 % of control
[8]
  T/C: 104 % of control

## CN=C(N)c1ccc(N=C(N)c2ccc(N=C(N)c3ccc(NC(=O)Nc4cccc(NC(=O)Nc5ccc(C(N)=Nc6ccc(C(N)=Nc7ccc(C(N)=NC)cc7)cc6)cc5)c4)cc3)cc2)cc1
dose: 0.25 mg/kg/injection, schedule: Q01DX015 (ip), vehicle: water
  T/C: 109 % of control
dose: 0.5 mg/kg/injection, schedule: Q01DX015 (ip), vehicle: water
  T/C: 113 % of control
dose: 1.0 mg/kg/injection, schedule: Q01DX015 (ip), vehicle: water
  T/C: 121 % of control
dose: 2.0 mg/kg/injection, schedule: Q01DX015 (ip), vehicle: water
  T/C: 124 % of control
dose: 37.5 mg/kg/injection, schedule: Q01DX001 (ip), vehicle: water
  T/C: 177 % of control and 178 % of control and 187 % of control
dose: 75.0 mg/kg/injection, schedule: Q01DX001 (ip), vehicle: water
  T/C: 265 % of control and 278 % of control and 310 % of control

## CCCCCCC(=O)C(O)C(O)C(=O)CCCCCCCC(=O)O (stereo not drawn)
dose: 100.0 mg/kg/injection, schedule: Q04DX002 (ip), vehicle: other
  T/C: 91 % of control
dose: 200.0 mg/kg/injection, schedule: Q04DX002 (ip), vehicle: other
  T/C: 98 % of control
dose: 400.0 mg/kg/injection, schedule: Q04DX002 (ip), vehicle: other
  T/C: 102 % of control

## O=C(N/N=C/c1ccc(Cl)cc1Cl)c1ccccc1
[5]
  T/C: 101 % of control
[7]
  T/C: 95 % of control

## c1ccc(C2=NC2c2ccccc2)cc1 (stereo not drawn)
dose: 25.0 mg/kg/injection, schedule: Q01DX001 (ip), vehicle: Klucel (hydroxypropylcellulose) (HPC)
  T/C: 97 % of control
dose: 50.0 mg/kg/injection, schedule: Q01DX001 (ip), vehicle: Klucel (hydroxypropylcellulose) (HPC)
  T/C: 96 % of control
dose: 100.0 mg/kg/injection, schedule: Q01DX001 (ip), vehicle: Klucel (hydroxypropylcellulose) (HPC)
  T/C: 105 % of control

## CN(Cc1ccccc1)C(=O)C(Cl)Cl
[1]
  T/C: 103 % of control
[2]
  T/C: 117 % of control
[3]
  T/C: 109 % of control

## O=Cc1[nH]c(=S)[nH]c(=O)c1Cc1ccccc1Cl
[5]
  T/C: 101 % of control
[7]
  T/C: 98 % of control
[9]
  T/C: 97 % of control

## O=C(O)CSc1cc(Cl)c(Cl)cc1Cl
dose: 87.5 mg/kg/injection, schedule: Q04DX003 (ip), vehicle: other
  T/C: 100 % of control
dose: 175.0 mg/kg/injection, schedule: Q04DX003 (ip), vehicle: other
  T/C: 110 % of control
